Data published in patent publication US5137913A, “Diaryl ether cyclic ethers” (Imperial Chemical Industries PLC, priority 1989, dated 1992).

Key:
[1] = system: 5-LO (LTB4) in heparinised human blood; assay: In vitro heparinised human blood challenged with A23187, LTB4 radioimmunoassay (test b); type: cell-based
Description: b) An in vitro assay system involving incubating a test compound with heparinised human blood, prior to challenge with the calcium ionophore A23187 and then indirectly measuring the inhibitory effects on 5-LO by assaying the amount of LTB4 using the specific radioimmunoassay described by Carey and Forder (F. Carey and R. A. Forder, Brit. J. Pharmacol. 1985, 84, 34P) which involves the use of a protein-LTB4 conjugate produced using the procedure of Young et alia (Prostaglandins, 1983, 26(4), 605-613). The effects of a test compound on the enzyme cyclooxygenase (which is involved in the alternative metabolic pathway for arachidonic acid and gives rise to prostaglandins, thromboxanes and related metabolites) may be measured at the same time using the specific radioimmunoassay for thromboxane B2 (TxB2) described by Carey and Forder (see above). This test provides an indication of the effects of a test compound against 5-LO and also cyclooxygenase in the presence of blood cells and proteins. It permits the selectivity of the inhibitory effect on 5-LO or cyclooxygenase to be assessed.

5-LO (LTB4) = assay: Ex vivo assay: administration of compound, blood collection, challenge with A23187, LTB4 radioimmunoassay (test c); type: in vivo; settings: oral
Description: c) An ex vivo assay system, which is a variation of test b) above, involving administration of a test compound (usually orally as the suspension produced when a solution of the test compound in dimethylsulphoxide is added to carboxymethylcellulose), blood collection, heparinisation, challenge with A23187 and radioimmunoassay of LTB4 and TxB2. This test provides an indication of the bioavailability of a test compound as an inhibitor of 5-LO or cyclooxygenase.

Work on CCC1(c2cccc(Sc3ccc4ccccc4c3)c2)COC(C)(C)O1 (centres unmarked) [Example 1, 4-ethyl-2,2-dimethyl-4-[3-(naphth-2-ylthio)phenyl]-1,3-dioxolane] yielded an IC50 [1] of 500 nM and an ED50 (5-LO (LTB4)) of 3 mg/kg.
